Values quoted from earlier work in article PMC9605497, “Potential of Epidermal Growth Factor-like Peptide from the Sea Cucumber Stichopus horrens to Increase the Growth of Human Cells: In Silico Molecular Docking Approach” (Marine Drugs, 2022).

Columns and labels:
HeLa cells = details: ref [77]; cited from earlier work
Description: (§1) The rationale of testing peptide concentrations at 10 nM was based on a study done by Clark et al.. In the study, the EGFR expression in carcinoma cells was prolonged for 10 h when 10 nM of EGF was exerted, as compared to only 4 h of EGFR expression in 0.4 nM EGF. This is supported by another experiment by Zhao et al. where cell proliferation of CHO cells can only be induced when exerted with EGF concentrations below 0.1 ng/mL. In contrast, cell proliferation at higher EGF concentrations (1 to 100 ng/mL) was suppressed. The process of EGF binding to its receptor and the internali ...

carcinoma cells = details: 10 nM EGF; ref [75] Clark et al.; cited from earlier work
Description: as §1

CHO cells = details: ref [76] Zhao et al., cited from earlier work
Description: as §1

human skin model = details: 50 nM, compared to 0.1 nM and 10 nM EGF; ref [18]; cited from earlier work
Text: Despite these nutritional properties that could be indirectly associated with the wound healing benefit of this marine organism, the full potential of sea cucumber as a source of marine therapeutic product remains unexplored and limited to the previous approaches of specific metabolite identification. Among the prospective molecules to be investigated are growth factors and cytokines, which are examples of important mitogens that ensure an effective wound healing process. Several mitogens are involved directly as growth factors in cell proliferation such as epidermal growth factor (EGF) ...

EGFR = details: SPR and AFM, experimental; ref [41] Kuo et al.; read-out: dissociation constant (Kd) of EGF and EGFR complex; cited from earlier work
Text: The values are different because docking is based on the scoring functions used. […] A lower Kd value means dissociation occurs at a slow rate and the binding affinity (Ka) between these ...

receptors (EGFR) = details: 0.156 to 5 ng/mL biotinylated EGF; ref [46] King et al.; cited from earlier work
Description: The increasing binding activity was determined by both the concentration of biotinylated EGF tested and the number of cells used. In this study, inoculating about 80,000 cells gives a reproducible result as opposed to when lower number of cells was used. Increasing the ligand concentration could improve assessment of the binding signal of Sh-EGFl-1 peptide with human EGFR s ...

Substance | time for EGF binding and internalization of receptor (HeLa cells) | duration of EGFR expression (carcinoma cells) [h] | cell proliferation at higher EGF concentrations (CHO cells; 1 to 100 ng/mL) | EGF concentration inducing cell proliferation (CHO cells; CHO cells) | DNA synthesis (human skin model) | Kd (EGFR) [nM] | absorbance reading (receptors (EGFR))
Human EGF: human EGF (chain C) of crystal structure 1IVO; also EGF of cited literature (MNSDSECPLSHDGYCLHDGVCMYIEALDKYACNCVVGYIGERCQYRDLKWWELR; biotin (conjugated with NHS-biotin; sites not stated)) | less than 30 min | 10 | suppressed | below 0.1 ng/mL | maximum increase of DNA synthesis | ~177 | 
biotinylated EGF: biotinylated EGF used by King et al. |  |  |  |  |  |  | consistent increases in the absorbance reading
